Test results from article PMC5114558, “Reader domain specificity and lysine demethylase-4 family function” (Nature Communications, 2016).
Entries after “also recorded” stand apart in the source; their conditions may differ.

Experiments:
Type in all cases: biochemical, human
[1] = system: KDM4B full-length protein; test: MS-based demethylation assay, full-length KDM4B; details: 0.2 μM enzyme, 5–10 μM peptide, pH 7.5, 25 °C, MS read-out, single peptide substrates, Fig. 6a,b
Method: (§1) In a typical demethylase reaction, the assay mixture containing 50 mM Tris pH 7.5, 50 mM NaCl, 50 μM (NH4)2Fe(SO4)2, 0.5 mM ascorbic acid, 1 mM α-ketoglutarate and 0.2 μM full-length KDM4A–C (Active Motif) was mixed with 5–10 μM of trimethylated histone peptides (detailed sequence information in Supplementary Table 1). Each peptide concentration was quantified by measuring Abs280nm for peptides containing either tryptophan or tyrosine residue. After incubation of assay mixture at 25 °C for 10, 30 and 60 min time point, 10 μl of aliquot was transferred to a clean tube containing 5 μl of 5% formic acid to quench the reaction. Each quenched sample was treated with standard StageTip protocol using C18 extraction disk (Model 2215, Empore, 3 M) to remove excess salts and detergents in the reaction mixture. Each eluate from StageTip containing peptides was dried at a reduced pressure (vacuum centrifuge) and was re-suspended with 10 μl of 5% acetonitrile solution (0.1% formic acid). The 1 μl of the sample was injected at 0.7 μl min^−1 flow rate onto a Dionex Ultimate 3000 Nano LC system equipped with Atlantis dC18 NanoEase reverse-phase column (3 μm, 100 μm × 150 mm, Waters) and coupled to a hybrid quadrupole-orbitrap MS (Q-Exactive, Thermo Scientific). The peptide was eluted at 4–15 min retention time with a linear gradient of 2–35% acetonitrile (0.1% formic acid). All the solvents used for liquid chromatography MS were HPLC grade (Fisher). For each analysis, MS1 scan range of 300–1,100 m/z was used and data-dependent MS/MS was obtained to identify the site of demethylation. Each peptide peak and its area integration was performed on the XCalibur Qual Browser.

[2] = system: KDM4B full-length protein; test: MS-based demethylation assay, 1:1 substrate competition, full-length KDM4B; details: 1:1 (5 μM:5 μM) H3K36me3 and H3K23me3K36me3, 25 °C, P<0.01 (Fig. 6c)
Method: as §1, with “All the solvents used for liquid chromatography MS were HPLC grade (Fisher). For each analysis, MS1 scan range of 300–1,100 m/z was used and data-dependent MS/MS was obtained to identify the site of demethylation. Each peptide peak and its area integration was performed on the XCalibur Qual Browser.” left out

KDM4A full-length = test: MS-based demethylation assay, 1:1 substrate competition, full-length KDM4A; details: 1:1 (5 μM:5 μM) H3K36me3 and H3K23me3K36me3, MS; Supplementary Fig. 7d-e
Method: as §1, with “All the solvents used for liquid chromatography MS were HPLC grade (Fisher). For each analysis, MS1 scan range of 300–1,100 m/z was used and data-dependent MS/MS was obtained to identify the site of demethylation. Each peptide peak and its area integration was performed on the XCalibur Qual Browser.” left out

KDM4C full-length = test: MS-based demethylation assay, 1:1 substrate competition, full-length KDM4C; details: 1:1 (5 μM:5 μM) H3K36me3 and H3K23me3K36me3, MS; Supplementary Fig. 7d-e
Method: as §1, with “All the solvents used for liquid chromatography MS were HPLC grade (Fisher). For each analysis, MS1 scan range of 300–1,100 m/z was used and data-dependent MS/MS was obtained to identify the site of demethylation. Each peptide peak and its area integration was performed on the XCalibur Qual Browser.” left out

With “H3K23me3K36me3: demethylation assay peptide, Tufts University Core Facility” the “demethylation by full-length KDM4B” value [1] was “faster rates of H3K36me2 and H3K36me1 product formation”, the “demethylation by full-length KDM4B” value ([1]; listed as H3(20–42)K23me3K36me3) was “increases H3K36me3 conversion to H3K36me1/2” and the “preferential demethylation by KDM4B in 1:1 mixture” value [2] was “preferentially demethylates dually modified peptide; also recorded: preferentially demethylate H3K36me3 in the context of dually modified peptide”. The “preferential demethylation by KDM4A in 1:1 mixture” value (KDM4A full-length) was “preferentially demethylates dually modified peptide; also recorded: enhanced for KDM4A and KDM4B but not KDM4C” and the “preferential demethylation by KDM4C in 1:1 mixture” value (KDM4C full-length) was “not KDM4C”.
